Experimental data as given in US20200172549A1, “NOVEL CHLORIN E6-CURCUMIN DERIVATIVES, PREPARATION METHOD THEREOF, AND PHARMACEUTICAL COMPOSITION CONTAINING THE SAME FOR TREATMENT OF CANCER” (DONG SUNG PHARM. CO., LTD., priority 2017, published 2020).

How the values were obtained:
MIA-PaCa-2 [1] = assay: Phototoxicity (PDT), MTT assay, MIA-PaCa-2; format: cell-based; details: for Cell viability, Phototoxicity against MIA-PaCa-2: 3 h, 50 mW 0.09 J/cm^2 laser 100 sec, 72 h incubation
Experimental: (§1) Phototoxicity: The culture of AsPC-1 pancreatic cancer cells were grown in RPMI-1640 medium (life technologies corporation, USA) supplemented with 10% heat-inactivated fetal bovine serum (life technologies corporation, USA) and 1% penicillin (life technologies corporation, USA), whereas MIA-paca2 and PANC-1 cells were grown in DMEM. The MTT assay was used to assess the cell viability of AsPC-1, MIA-paca2, PANC-1 cells. The cells attached to a 96-well plate (5,000 cells/well) were treated with 3.125 μM, 6.25 μM, 12.5 μM, 25 μM, 50 μM of photosensitizers, 7, 10, 13, 16, and 3 for 3 h. The photosensitized cells were then irradiated with a 50 mW, 0.09 J/cm^2 laser for 100 sec. The cells were then incubated for 72 h at 37° C. in a 5% CO2 incubator and exposed to MTT [3-(4,5-dimethylthiazol-2-yl)-2,5-diphenyl-tetrazolium bromide] (250 μg/ml) for 3 h. The solution was changed to 200 μl of dimethylsulfoxide (DMSO, Sigma). After 30 min incubation and shaking in microplate mixer, the optical density (OD) was measured using a microplate reader (Thermo Fisher scientific, USA) at 570 nm wavelength. The cell viability was calculated using the following formula: Cell viability (%)=Mean optical density of treated wells/Mean optical density of control wells×100.

[2] = system: AsPC-1 pancreatic cancer cells; assay: Phototoxicity (PDT), MTT assay, AsPC-1; format: cell-based; details: for Cell viability, Phototoxicity against AsPC-1: 3 h, 50 mW 0.09 J/cm^2 laser 100 sec, 72 h incubation
Experimental: as §1

PANC-1 = assay: Phototoxicity (PDT), MTT assay, PANC-1; format: cell-based; details: for Cell viability, Phototoxicity against PANC-1: 3 h, 50 mW 0.09 J/cm^2 laser 100 sec, 72 h incubation
Experimental: as §1

[3] = Photophysical properties (absorption) in DMSO; format: physicochemical
Experimental: The photophysical properties of Ce6-curcumin conjugates and dimethyl ester ce6 were analyzed in dimethyl sulfoxide (DMSO). All the photosensitizers 7, 10, 13, and 16 (Formula IV) effectively absorbed the red light compared to dimethyl ester ce6. The major soret peak at λmax=405-408 nm and Q-bands at 667 nm for the photosensitizers 7, 10, 13, and 16 (Formula IV) and Q band peak at 656 for dimethyl ester ce6.

MIA-PaCa-2 [4] = assay: Dark cytotoxicity, MTT assay, MIA-PaCa-2; format: cell-based; details: 3 h, no light, 72 h incubation
Experimental: as §1, with “Dark cytotoxicity:” for “Phototoxicity:”, “1” for “1%”, “h.” for “h. The photosensitized cells were then irradiated with a 50 mW, 0.09 J/cm^2 laser for 100 sec.”

[5] = system: AsPC-1 pancreatic cancer cells; assay: Dark cytotoxicity, MTT assay, AsPC-1; format: cell-based; details: 3 h, no light, 72 h incubation
Experimental: as §1, with “Dark cytotoxicity:” for “Phototoxicity:”, “1” for “1%”, “h.” for “h. The photosensitized cells were then irradiated with a 50 mW, 0.09 J/cm^2 laser for 100 sec.”

[6] = Dark cytotoxicity, MTT assay, MIA-PaCa-2; format: cell-based; details: human, MIA-PaCa-2 cells, 3 h, no light, 72 h incubation, read-out: Cell viability, Dark cytotoxicity against MIA-PaCa-2
Experimental: as §1, with “Dark cytotoxicity:” for “Phototoxicity:”, “1” for “1%”, “h.” for “h. The photosensitized cells were then irradiated with a 50 mW, 0.09 J/cm^2 laser for 100 sec.”

[7] = Dark cytotoxicity, MTT assay, AsPC-1; format: cell-based; details: human, AsPC-1 pancreatic cancer cells, 3 h, no light, 72 h incubation, read-out: Cell viability, Dark Cytotoxicity against AsPC-1
Experimental: as §1, with “Dark cytotoxicity:” for “Phototoxicity:”, “1” for “1%”, “h.” for “h. The photosensitized cells were then irradiated with a 50 mW, 0.09 J/cm^2 laser for 100 sec.”

[8] = 12.5 μM concentration, with light

SMILES	Cell viability, Phototoxicity against MIA-PaCa-2 (MIA-PaCa-2 [1]; 3.12 μM photosensitizer) [%]	Cell viability, Phototoxicity against MIA-PaCa-2 (MIA-PaCa-2 [1]; 6.25 μM photosensitizer) [%]	Cell viability, Phototoxicity against MIA-PaCa-2 (MIA-PaCa-2 [1]; 12.5 μM photosensitizer) [%]	Cell viability, Phototoxicity against MIA-PaCa-2 (MIA-PaCa-2 [1]; 25 μM photosensitizer) [%]	Cell viability, Phototoxicity against MIA-PaCa-2 (MIA-PaCa-2 [1]; 50 μM photosensitizer) [%]	Cell viability, Phototoxicity against AsPC-1 ([2]; 3.12 μM photosensitizer) [%]	Cell viability, Phototoxicity against AsPC-1 ([2]; 6.25 μM photosensitizer) [%]	Cell viability, Phototoxicity against AsPC-1 ([2]; 12.5 μM photosensitizer) [%]	Cell viability, Phototoxicity against AsPC-1 ([2]; 25 μM photosensitizer) [%]	Cell viability, Phototoxicity against AsPC-1 ([2]; 50 μM photosensitizer) [%]	Cell viability, Phototoxicity against PANC-1 (PANC-1; 3.12 μM photosensitizer) [%]	Cell viability, Phototoxicity against PANC-1 (PANC-1; 6.25 μM photosensitizer) [%]	Cell viability, Phototoxicity against PANC-1 (PANC-1; 12.5 μM photosensitizer) [%]	Cell viability, Phototoxicity against PANC-1 (PANC-1; 25 μM photosensitizer) [%]	Cell viability, Phototoxicity against PANC-1 (PANC-1; 50 μM photosensitizer) [%]	Q-band peak [3] [nm]	also measured
C=Cc1c(C)c2cc3nc(c(CC(=O)OC)c4[nH]c(cc5nc(cc1[nH]2)C(C)=C5CC)c(C)c4C(=O)NCCCNC(=O)CCCC(=O)Oc1ccc(/C=C/C(=O)CC(=O)/C=C/c2ccc(O)c(OC)c2)cc1OC)C(CCC(=O)OC)C3C (stereo not shown) [Compound 7, Chlorine e6-curcumin Conjugate (7)]	69.70	12.35	6.03	5.18	4.99	85.97	43.03	24.03	10.35	6.63	66.14	31.56	12.33	11.58	11.87	667	Inhibition of MIA-PaCa-2 (PDT) (MIA-PaCa-2 [1]; [8]): 94%; Inhibition of AsPC-1 (PDT) [2, 8]: 75%; Inhibition of PANC-1 (PDT) (PANC-1; [8]): 88%; Cell viability, Dark cytotoxicity against MIA-PaCa-2 (MIA-PaCa-2 [4]; 3.12 μM photosensitizer): 107.39%; Cell viability, Dark cytotoxicity against MIA-PaCa-2 (MIA-PaCa-2 [4]; 6.25 μM photosensitizer): 104.17%; Cell viability, Dark cytotoxicity against MIA-PaCa-2 (MIA-PaCa-2 [4]; 12.5 μM photosensitizer): 101.89%; Cell viability, Dark cytotoxicity against MIA-PaCa-2 (MIA-PaCa-2 [4]; 25 μM photosensitizer): 99.23%; Cell viability, Dark cytotoxicity against MIA-PaCa-2 (MIA-PaCa-2 [4]; 50 μM photosensitizer): 88.84%; Cell viability, Dark Cytotoxicity against AsPC-1 ([5]; 3.12 μM photosensitizer): 100.58%; Cell viability, Dark Cytotoxicity against AsPC-1 ([5]; 6.25 μM photosensitizer): 101.61%; Cell viability, Dark Cytotoxicity against AsPC-1 ([5]; 12.5 μM photosensitizer): 103.72%; Cell viability, Dark Cytotoxicity against AsPC-1 ([5]; 25 μM photosensitizer): 97.17%; Cell viability, Dark Cytotoxicity against AsPC-1 ([5]; 50 μM photosensitizer): 90.14%
C=Cc1c(C)c2cc3nc(c(CC(=O)OC)c4[nH]c(cc5nc(cc1[nH]2)C(C)=C5CC)c(C)c4C(=O)NCCCOCCOCCOCCCNC(=O)CCCC(=O)Oc1ccc(/C=C/C(=O)CC(=O)/C=C/c2ccc(O)c(OC)c2)cc1OC)[C@@H](CCC(=O)OC)[C@@H]3C [Compound 16, Chlorine e6-curcumin Conjugate (16)]	80.67	17.62	9.49	8.03	9.67	87.29	45.79	32.67	25.46	27.83	97.36	89.19	59.07	24.07	20.24	667	inhibition at 25 µM (MIA-PaCa-2 [1]; Homo sapiens, MIA PaCa-2, 25 μM concentration, with light): 92%; inhibition at 25 µM ([2]; Homo sapiens, ASPC1, 25 μM concentration, with light): 75%; inhibition at 25 µM (PANC-1; Homo sapiens, PANC-1, 25 μM concentration, with light): 76%; viability at 3.12 μM ([6]; 3.12 μM photosensitizer): 122%; viability at 6.25 μM ([6]; 6.25 μM photosensitizer): 121%; viability at 12.5 μM ([6]; 12.5 μM photosensitizer): 113%; viability at 25 μM ([6]; 25 μM photosensitizer): 101%; viability at 50 μM ([6]; 50 μM photosensitizer): 72.8%; viability at 3.12 μM ([7]; 3.12 μM photosensitizer): 99.9%; viability at 6.25 μM ([7]; 6.25 μM photosensitizer): 103%; viability at 12.5 μM ([7]; 12.5 μM photosensitizer): 103%; viability at 25 μM ([7]; 25 μM photosensitizer): 80.4%; viability at 50 μM ([7]; 50 μM photosensitizer): 84.1%
